Results from the NIST ThermoML archive (doi:10.1016/j.jct.2008.11.012).

Test: xn = mol fraction of the nth substance listed
Settings: 101 kPa, Liquid; for viscosity: Concentric cylinders viscometry; for mass density: Vibrating tube method

NCCNCCN [di(2-aminoethyl)amine] + O
Settings | mass density [kg/m3] | viscosity [mPa·s]
293.15 K, x1 = 0.0095 | 1001.5 | 1.31
293.15 K, x1 = 0.0299 | 1004.2 | 2.076
293.15 K, x1 = 0.0565 | 1011.5 | 4.009
293.15 K, x1 = 0.0696 | 1014.5 | 5.418
293.15 K, x1 = 0.1043 | 1023.8 | 11.63
293.15 K, x1 = 0.125 | 1026.5 | 17.94
293.15 K, x1 = 0.1591 | 1030.7 | 31.07
293.15 K, x1 = 0.2076 | 1029.4 | 50.68
293.15 K, x1 = 0.2449 | 1027.5 | 59.62
293.15 K, x1 = 0.3099 | 1019.1 | 59.42
293.15 K, x1 = 0.3438 | 1014.1 | 55.52
293.15 K, x1 = 0.4112 | 1004.1 | 43.08
293.15 K, x1 = 0.4974 | 992.8 | 30.13
293.15 K, x1 = 0.6111 | 979 | 19.46
293.15 K, x1 = 0.6988 | 971.8 | 15.12
293.15 K, x1 = 0.8073 | 963.4 | 10.61
293.15 K, x1 = 0.8954 | 957.5 | 8.515
293.15 K, x1 = 1 | 951 | 7.038
303.15 K, x1 = 0.0095 | 998.6 | 1.017
303.15 K, x1 = 0.0299 | 1000.7 | 1.557
303.15 K, x1 = 0.0565 | 1007.1 | 2.841
303.15 K, x1 = 0.0696 | 1009.6 | 3.736
303.15 K, x1 = 0.1043 | 1017.1 | 7.329
303.15 K, x1 = 0.125 | 1019.8 | 10.57
303.15 K, x1 = 0.1591 | 1023 | 16.94
303.15 K, x1 = 0.2076 | 1021.4 | 25.63
303.15 K, x1 = 0.2449 | 1018.6 | 29.47
303.15 K, x1 = 0.3099 | 1010.2 | 29.55
303.15 K, x1 = 0.3438 | 1005.7 | 27.97
303.15 K, x1 = 0.4112 | 995 | 22.7
303.15 K, x1 = 0.4974 | 983.7 | 16.77
303.15 K, x1 = 0.6111 | 970.6 | 11.54
303.15 K, x1 = 0.6988 | 962.7 | 9.116
303.15 K, x1 = 0.8073 | 954.3 | 6.899
303.15 K, x1 = 0.8954 | 948.4 | 5.713
303.15 K, x1 = 1 | 942.3 | 4.804
313.15 K, x1 = 0.0095 | 994.9 | 0.8263
313.15 K, x1 = 0.0299 | 996.7 | 1.223
313.15 K, x1 = 0.0565 | 1002.2 | 2.101
313.15 K, x1 = 0.0696 | 1004.3 | 2.684
313.15 K, x1 = 0.1043 | 1010.7 | 4.877
313.15 K, x1 = 0.125 | 1012.9 | 6.69
313.15 K, x1 = 0.1591 | 1015.4 | 10.13
313.15 K, x1 = 0.2076 | 1013.2 | 14.34
313.15 K, x1 = 0.2449 | 1009.9 | 16.2
313.15 K, x1 = 0.3099 | 1001.5 | 16.32
313.15 K, x1 = 0.3438 | 997.1 | 15.61
313.15 K, x1 = 0.4112 | 986.4 | 12.99
313.15 K, x1 = 0.4974 | 975.1 | 10.17
313.15 K, x1 = 0.6111 | 962.1 | 7.375
313.15 K, x1 = 0.6988 | 954.2 | 5.944
313.15 K, x1 = 0.8073 | 947.3 | 4.741
313.15 K, x1 = 0.8954 | 939.8 | 4.017
313.15 K, x1 = 1 | 933.8 | 3.4
323.15 K, x1 = 0.0095 | 990.5 | 0.6854
323.15 K, x1 = 0.0299 | 991.7 | 0.9871
323.15 K, x1 = 0.0565 | 996.8 | 1.615
323.15 K, x1 = 0.0696 | 998.6 | 2.012
323.15 K, x1 = 0.1043 | 1004.2 | 3.423
323.15 K, x1 = 0.125 | 1005.7 | 4.514
323.15 K, x1 = 0.1591 | 1007.9 | 6.505
323.15 K, x1 = 0.2076 | 1004.8 | 8.733
323.15 K, x1 = 0.2449 | 1001.9 | 9.728
323.15 K, x1 = 0.3099 | 993.1 | 9.836
323.15 K, x1 = 0.3438 | 988.4 | 9.492
323.15 K, x1 = 0.4112 | 978 | 8.14
323.15 K, x1 = 0.4974 | 966.8 | 6.622
323.15 K, x1 = 0.6111 | 953.7 | 5.032
323.15 K, x1 = 0.6988 | 945.9 | 4.175
323.15 K, x1 = 0.8073 | 939.1 | 3.445
323.15 K, x1 = 0.8954 | 931.5 | 2.976
323.15 K, x1 = 1 | 925.5 | 2.695
333.15 K, x1 = 0.0095 | 985.5 | 0.5792
333.15 K, x1 = 0.0299 | 986.5 | 0.8166
333.15 K, x1 = 0.0565 | 991 | 1.283
333.15 K, x1 = 0.0696 | 992.4 | 1.562
333.15 K, x1 = 0.1043 | 997.2 | 2.525
333.15 K, x1 = 0.125 | 998.2 | 3.206
333.15 K, x1 = 0.1591 | 999.9 | 4.43
333.15 K, x1 = 0.2076 | 996.3 | 5.698
333.15 K, x1 = 0.2449 | 993.1 | 6.271
333.15 K, x1 = 0.3099 | 984.1 | 6.366
333.15 K, x1 = 0.3438 | 979.6 | 6.191
333.15 K, x1 = 0.4112 | 969.2 | 5.44
333.15 K, x1 = 0.4974 | 956.8 | 4.572
333.15 K, x1 = 0.6111 | 945.1 | 3.62
333.15 K, x1 = 0.6988 | 937.3 | 3.083
333.15 K, x1 = 0.8073 | 929.1 | 2.618
333.15 K, x1 = 0.8954 | 922.9 | 2.301
333.15 K, x1 = 1 | 917 | 2.109
343.15 K, x1 = 0.0095 | 980 | 0.4978
343.15 K, x1 = 0.0299 | 980.8 | 0.6873
343.15 K, x1 = 0.0565 | 984.7 | 1.044
343.15 K, x1 = 0.0696 | 985.8 | 1.244
343.15 K, x1 = 0.1043 | 990.1 | 1.919
343.15 K, x1 = 0.125 | 990.5 | 2.376
343.15 K, x1 = 0.1591 | 992.3 | 3.174
343.15 K, x1 = 0.2076 | 987.6 | 3.938
343.15 K, x1 = 0.2449 | 984.2 | 4.293
343.15 K, x1 = 0.3099 | 975.4 | 4.372
343.15 K, x1 = 0.3438 | 970.7 | 4.277
343.15 K, x1 = 0.4112 | 960.5 | 3.846
343.15 K, x1 = 0.4974 | 949.5 | 3.308
343.15 K, x1 = 0.6111 | 936.5 | 2.721
343.15 K, x1 = 0.6988 | 929.1 | 2.366
343.15 K, x1 = 0.8073 | 920.7 | 2.067
343.15 K, x1 = 0.8954 | 914.6 | 1.833
343.15 K, x1 = 1 | 908.9 | 1.703
353.15 K, x1 = 0.0095 | 973.8 | 0.4312
353.15 K, x1 = 0.0299 | 974.6 | 0.5864
353.15 K, x1 = 0.0565 | 978.1 | 0.8677
353.15 K, x1 = 0.0696 | 978.9 | 1.017
353.15 K, x1 = 0.1043 | 982.6 | 1.507
353.15 K, x1 = 0.125 | 982.3 | 1.824
353.15 K, x1 = 0.1591 | 982.9 | 2.373
353.15 K, x1 = 0.2076 | 978.5 | 2.852
353.15 K, x1 = 0.2449 | 975.1 | 3.086
353.15 K, x1 = 0.3099 | 966.3 | 3.151
353.15 K, x1 = 0.3438 | 961.7 | 3.1
353.15 K, x1 = 0.4112 | 951.7 | 2.841
353.15 K, x1 = 0.4974 | 940.8 | 2.502
353.15 K, x1 = 0.6111 | 927.8 | 2.118
353.15 K, x1 = 0.6988 | 920.4 | 1.876
353.15 K, x1 = 0.8073 | 912.2 | 1.677
353.15 K, x1 = 0.8954 | 906.1 | 1.504
353.15 K, x1 = 1 | 900.4 | 1.409
363.15 K, x1 = 0.0095 | 967.3 | 0.3693
363.15 K, x1 = 0.0299 | 967.7 | 0.4995
363.15 K, x1 = 0.0565 | 970.9 | 0.7364
363.15 K, x1 = 0.0696 | 971.7 | 0.8452
363.15 K, x1 = 0.1043 | 974.7 | 1.213
363.15 K, x1 = 0.125 | 974.2 | 1.439
363.15 K, x1 = 0.1591 | 974.2 | 1.84
363.15 K, x1 = 0.2076 | 969.5 | 2.148
363.15 K, x1 = 0.2449 | 966.1 | 2.311
363.15 K, x1 = 0.3099 | 957 | 2.365
363.15 K, x1 = 0.3438 | 952.6 | 2.337
363.15 K, x1 = 0.4112 | 942.7 | 2.176
363.15 K, x1 = 0.4974 | 931.9 | 1.955
363.15 K, x1 = 0.6111 | 919.1 | 1.696
363.15 K, x1 = 0.6988 | 911.8 | 1.526
363.15 K, x1 = 0.8073 | 903.6 | 1.387
363.15 K, x1 = 0.8954 | 897.5 | 1.26
363.15 K, x1 = 1 | 891.9 | 1.19
